molecular target: T1, Midkine (Homo sapiens, UniProt P21741); experiment: Binding affinity to recombinant midkine after 3 mins
T1 sequence (P21741 whole entry): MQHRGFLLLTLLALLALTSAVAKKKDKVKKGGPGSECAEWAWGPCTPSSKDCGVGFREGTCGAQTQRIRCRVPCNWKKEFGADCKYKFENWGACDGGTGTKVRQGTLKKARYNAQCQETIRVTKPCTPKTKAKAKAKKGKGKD

SMILES | Kd [nM]
CC(=O)N[C@H]1[C@H](O[C@H]2[C@H](O)[C@@H](O)[C@H](O[C@@H]3[C@@H](NC(C)=O)[C@H](O[C@H]4[C@H](O)[C@@H](O)[C@H](OCCNC(=O)CCOCCOCCOCCOCCNC(=O)CCCC[C@@H]5SC[C@@H]6NC(=O)N[C@@H]65)O[C@@H]4C(=O)O)O[C@H](COS(=O)(=O)O)[C@@H]3OS(=O)(=O)O)O[C@@H]2C(=O)O)O[C@H](COS(=O)(=O)O)[C@H](OS(=O)(=O)O)[C@@H]1O | 2.62
CC(=O)N[C@H]1[C@H](O[C@H]2[C@H](O)[C@@H](O)[C@H](O[C@@H]3[C@@H](NC(C)=O)[C@H](O[C@H]4[C@H](O)[C@@H](O)[C@H](OCCNC(=O)CCOCCOCCOCCOCCNC(=O)CCCC[C@@H]5SC[C@@H]6NC(=O)N[C@@H]65)O[C@@H]4C(=O)O)O[C@H](CO)[C@@H]3OS(=O)(=O)O)O[C@@H]2C(=O)O)O[C@H](CO)[C@H](OS(=O)(=O)O)[C@@H]1O | 17.8
CC(=O)N[C@H]1[C@H](O[C@H]2[C@H](O)[C@@H](O)[C@H](O[C@H]3[C@@H](O)[C@@H](CO)O[C@@H](O[C@H]4[C@H](O)[C@@H](O)[C@H](OCCNC(=O)CCOCCOCCOCCOCCNC(=O)CCCC[C@@H]5SC[C@@H]6NC(=O)N[C@@H]65)O[C@@H]4C(=O)O)[C@@H]3NC(C)=O)O[C@@H]2C(=O)O)O[C@H](CO)[C@H](O)[C@@H]1O | 2030
CC(=O)N[C@H]1[C@H](O[C@H]2[C@H](O)[C@@H](O)[C@H](O[C@@H]3[C@@H](NC(C)=O)[C@H](O[C@H]4[C@H](O)[C@@H](O)[C@H](OCCNC(=O)CCOCCOCCOCCOCCNC(=O)CCCC[C@@H]5SC[C@@H]6NC(=O)N[C@@H]65)O[C@@H]4C(=O)O)O[C@H](CO)[C@@H]3OS(=O)(=O)O)O[C@@H]2C(=O)O)O[C@H](COS(=O)(=O)O)[C@H](OS(=O)(=O)O)[C@@H]1O | 11.6
